Patent publication US20110293658A1, “USE OF INKT OR TLR AGONISTS FOR PROTECTING AGAINST OR TREATING A DISEASE SUCH AS ACUTE INFECTION OR CANCER” (LUDWIG INSTITUTE FOR CANCER RESEARCH LTD., priority 2008, published 2011)
Values joined by “and” are separate entries in the source; they are usually repeats but may differ in a detail not shown here. Equal values may be shown once.

Columns and labels:
BM derived MDSC [1] = assay: OT-I proliferation assay with BM derived MDSC; type: cell-based, mouse; conditions: MDSC pulsed with α-GalCer in the presence of BM resident iNKT cells from WT mice
ARG1 = ARG1 activity of α-GalCer pulsed MDSC (urea release); type: cell-based, mouse; conditions: MDSC pulsed with 100 ng α-GalCer in the presence of iNKT cells
Experimental: (§1) (A) Loss of ARG1 and NOS2 activity in α-GalCer pulsed MDSC incubated with BM derived iNKT cells. MDSC were treated with α-GalCer in the presence of iNKT cells and collected at different time points. ARG1 and NOS2 activities were measured using a colorimetric assay to evaluate urea and nitrate/nitrite release, respectively (De Santo et al. 2005. Proc Natl Acad Sci USA 102:4185-4190. Serafini et al. 2006. J Exp Med 203:2691-2702). An ELISA was used to evaluate IL-12p40 production. Values are shown as a percentage of time point 0. The maximum amount of urea released by untreated MDSC (1×10^6) was 91.7 μg. The maximum amount of […] measured in the supernatant of untreated MDSC was 120 μM. The maximum amount of IL-12p40 was 200 ng/ml.
(§2) Measuring activity of MDSC enzymes. ARG1 and NOS2 activities of α-GalCer pulsed BM-derived MDSC co-cultured with BM derived iNKT cells were assessed at different time points. NOS2 activity was measured from supernatants by Griess reaction, as the amount of NO3- and NO2-produced using a nitrate/nitrite assay kit (Cayman Chemicals) (Proc Natl Acad Sci USA 102:4185-4190). ARG1 activity was measured in cell lysates, as previously described (Proc Natl Acad Sci USA 102:4185-4190).

NOS2 = NOS2 activity of α-GalCer pulsed MDSC (nitrate/nitrite release); type: cell-based, mouse; conditions: MDSC pulsed with 100 ng α-GalCer in the presence of iNKT cells
Experimental: as §1, §2

IL-12p40 = IL-12p40 production by MDSC (ELISA); type: cell-based, mouse; conditions: MDSC pulsed with 100 ng α-GalCer in the presence of iNKT cells
IL-23 and IL-12p70 = IL-23 and IL-12p70 secretion by α-GalCer pulsed MDSC; type: cell-based, mouse; conditions: MDSC pulsed with α-GalCer in the presence of iNKT cells; data not shown
BM derived MDSC [2] = assay: iNKT cell dependent lysis of α-GalCer pulsed MDSC; type: cell-based, mouse; conditions: MDSC pulsed with 100 ng of α-GalCer
Experimental: CFSE labelled BM derived MDSC were either pulsed or not pulsed with α-GalCer and incubated with CD11c and Gr-1 depleted BM cultures, which contain iNKT cells.

BM derived MDSC [3] = assay: Phenotypic analysis of treated MDSC (FACS); type: cell-based, mouse
[4] = system: CD11b+ cells from IAV infected individuals; type: cell-based, human; conditions: α-GalCer 100 ng/ml in presence of iNKT cells at MDSC:iNKT ratio 1:0.25, or ARG1 and NOS2 inhibitors; DC:CD11b+ 1:1
human MDSC = assay: iNKT cell dependent killing of α-GalCer pulsed human MDSC (Propidium Iodide); type: cell-based; conditions: α-GalCer 100 ng/ml, MDSC:iNKT cell ratio of 1:0.25, 24 h
Experimental: (B) Conditions to prevent lysis of α-GalCer pulsed human MDSC by iNKT cells. Human MDSC (0.5×10^6) were treated with α-GalCer (100 ng/ml) and co-cultured with increasing numbers of iNKT cells for 24 h. MDSC were stained with Propidium Iodide to calculate the percentage of iNKT cell dependent MDSC killing.

iNKT cells = assay: IFN-γ release from iNKT cells incubated with α-GalCer pulsed CD11b+ cells; type: cell-based, human; conditions: α-GalCer pulsed CD11b+ cells from IAV infected patients, 24 h
Experimental: (C) iNKT cells are activated by α-GalCer pulsed CD11b^+ cells from IAV infected patients. IFN-γ release from iNKT cells incubated for 24 h with α-GalCer pulsed CD11b^+ cells, derived from the IAV infected patients and healthy controls described in FIG. 7. Data represent the average of 3 replicates ±S.D.

[5] = system: EG7 cells (EL4 tumor cell line transfected with ovalbumin cDNA); design: species or system C57 BL/6 mice; conditions: mouse, in vivo, iv
CD11bCD15 positive cells = assay: Melan-A priming experiments with CD11bCD15 positive cells from melanoma patients; type: cell-based, human; conditions: CD11bCD15 positive cells pulsed with alphaGalCer 100 ng or Threitolceramide 200 ng
Experimental: CD11bCD15 positive cells were pulsed with either alphaGalCer (100 ng) or Threitolceramide (200 ng) for 2 hours and then incubated with autologous iNKT cells overnight before adding autologous DC pulsed with Melan-A26-35 peptide and autologous CD11bCD15 cell depleted total leukocytes.
Experiments in FIG. 29 were carried out using the same conditions as shown in the right column of FIG. 28 (i.e. in the presence of iNKT cells and alphaGalCer pulsed CD11bCD15 positive cells) in the presence of either blocking anti CD1d (middle column) or blocking anti CD40 (right column) antibodies.
In order to assess whether secretion of IL-10 is contributing to the suppressive activity of CD11bCD15 positive cells, expansion of Melan-A26-35 specific T cell responses as assessed in the presence or absence of blocking anti 11-10 receptor antibodies. In the left hand panel of FIG. 31, expansion of Melan-A26-35 specific T cells was assessed using total leukocytes from which CD11b-CD15+ cells were removed (2.33%). Addition of CD11bCD15 positive cells reduced the frequency of Melan-A26-35 specific T cells (0.83%) (central panel).
Purification of CD11b/CD15+ cells. Since CD15 CD11b positive cells have granulocyte density, it is important to purify them without using density gradients, such as Ficol. Red blood cells are lysed from whole blood, using red lysis cell buffer and anti CD11b/CD15 specific antibodies are added to the leukocytes for FACS guided cell sorting.
Melan-A priming experiments. DCs were generated by culturing monocytes for 4 days in RPMI/10% FCS supplemented with 50 ng/ml GM-CSF (Pepro-tech) and 1,000 U/ml IL-4 (Salio, M., et al. 2007. Proc. Natl. Acad. Sci. U.S.A. 104:20490-20495). […] After 2 weeks, cells were stained with HLA-A2 tetramers loaded with melan-A26-35 peptide and anti CD8.
Harnessing iNKT cells. The protocol to purify Cdl lbCd15 cells and differentiate DC is similar to the protocol described earlier. Cdl lbCd15 cells were pulsed with either alphaGalCer (100 ng) or with threitolceramide (200 ng) and then incubated with iNKT cells for 12 hours. Cells were then washed pulsed with the melan-A26-35 peptide and incubated with total leukocytes. After 2 weeks in culture, cells were stained with HLA-A2 melan-A tetramers and anti-CD8 antibodies.

With `CCCCCCCCCCCCCCCCCCCCCCCCCC(=O)N[C@@H](CO[C@H]1O[C@H](CO)[C@H](O)[C@H](O)[C@H]1O)[C@H](O)[C@H](O)CCCCCCCCCCCCCC` [α-GalCer, α-Galactosylceramide] the “MDSC suppression of CFSE labelled OT-I proliferation” value (BM derived MDSC [1]) was “completely relieved”, the ARG1 activity (ARG1) was “reduction” and the NOS2 activity (NOS2) was “reduction”. For the same molecule, the “secretion of IL-12 p40” value (IL-12p40) was “enhanced secretion”, the “secretion of IL-23 and IL-12p70” value (IL-23 and IL-12p70) was “No secretion” and the “lysis of pulsed MDSC by iNKT cells” value (BM derived MDSC [2]) was “not lysed”. The “differentiation of CD11c- MDSC (CD11c expression)” value (BM derived MDSC [3]; CFSE labelled α-GalCer pulsed MDSC incubated with iNKT cells, 48 h) was “differentiation into CD11c^+ cells”, the “CD86 and MHC class II expression” value (BM derived MDSC [3]; α-GalCer pulsed MDSC incubated with iNKT cells, data not shown) was “up-regulation” and the “suppressive activity of CD11b+ cells collected from IAV infected individuals (MLR proliferation)” value [4] was “could be reduced”. The “iNKT cell dependent MDSC lysis” value (human MDSC) was “did not cause iNKT cell dependent MDSC lysis”, the “activation of iNKT cells (IFN-γ release)” value (iNKT cells) was “activated” and the “frequency of MDSCs (CD11b+Gr1+ positive cells)” value [5] was “lower frequency”. For the same molecule, the “frequency of Ova specific T cell responses (H-2Kb tetramer staining)” value [5] was “higher frequency”, the “tumor size / tumor regression” value [5] was “Tumour regression” and the “frequency of Melan-A26-35 specific T cells” value (CD11bCD15 positive cells; in the absence of added iNKT cells, unpulsed 0.34%) was 0.32%. The “frequency of Melan-A26-35 specific T cells” value (CD11bCD15 positive cells; with addition of autologous iNKT cells) was 3.05% and 6.42%.
